Type in all cases: in vivo
The subject of assay [1] is Alopecurus myosuroides (ALOMY). Nature of the assay: Pre-emergence biological efficacy, glasshouse, 1000 g/ha, evaluated after 13 days (100=total damage to plant; 0=no damage to plant). The settings on record: rate 1,000 g/ha; for pest or weed control at 1000 g/ha: Alopecurus myosuroides, 312 h, read-out: Percentage damage caused to weed species, pre-emergence, ALOMY. How it is done:
(§1) Seeds of Alopecurus myosuroides (ALOMY), Setaria faberi (SETFA), Echinochloa crus-galli (ECHCG), Solanum nigrum (SOLNI), Amaranthus retroflexus (AMARE) and Ipomoea hederaceae (IPOHE) were sown in standard soil in pots. […] The test plants were then grown under controlled conditions in the glasshouse (at 24/16° C., day/night; 14 hours light; 65% humidity) and watered twice daily. […]

For assay [2], the system named is Amaranthus retroflexus (AMARE). The assay is described as above. The settings on record: rate 1,000 g/ha; for pest or weed control at 1000 g/ha: Amaranthus retroflexus, 312 h, read-out: Percentage damage caused to weed species, pre-emergence, AMARE. How it is done:
as §1

The test system of assay [3] is Echinochloa crus-galli (ECHCG). The description is as above. The settings on record: rate 1,000 g/ha; for pest or weed control at 1000 g/ha: Echinochloa crus-galli, 312 h, read-out: Percentage damage caused to weed species, pre-emergence, ECHCG. How it is done:
as §1

The subject of assay [4] is Ipomoea hederaceae (IPOHE). The assay is described as above. The settings on record: rate 1,000 g/ha; for pest or weed control at 1000 g/ha: Ipomoea, 312 h, read-out: Percentage damage caused to weed species, pre-emergence, IPOHE. How it is done: as §1
The subject of assay [5] is Setaria faberi (SETFA). The description is as above. The settings on record: rate 1,000 g/ha; for pest or weed control at 1000 g/ha: Setaria faberi, 312 h, read-out: Percentage damage caused to weed species, pre-emergence, SETFA. How it is done:
as §1

In assay [6] the test system is Solanum nigrum (SOLNI). The assay is described as above. The settings on record: rate 1,000 g/ha; for pest or weed control at 1000 g/ha: Solanum nigrum, 312 h, read-out: Percentage damage caused to weed species, pre-emergence, SOLNI. The method, then: as §1
Assay [7] concerns Alopecurus myosuroides (ALOMY). The experiment in a line: Post-emergence biological efficacy, glasshouse, 500 or 1000 g/ha, evaluated after 13 days (100=total damage to plant; 0=no damage to plant). The settings on record: rate 1,000 g/ha; for pest or weed control at 1000 g/ha: Alopecurus myosuroides, 312 h, read-out: Percentage damage caused to weed species, post-emergence, ALOMY. How it is done:
(§2) Seeds of Alopecurus myosuroides (ALOMY), Setaria faberi (SETFA), Echinochloa […]), Solanum nigrum (SOLNI), Amaranthus retroflexus (AMARE) and Ipomoea hederaceae (IPOHE) were sown in standard soil in pots. […] The test plants were then grown on under controlled conditions in a glasshouse (at 24/16° C., day/night; 14 hours light; 65% humidity) and watered twice daily. […]

For assay [8], the system named is Amaranthus retroflexus (AMARE). The description is as above. The settings on record: rate 1,000 g/ha; for pest or weed control at 1000 g/ha: Amaranthus retroflexus, 312 h, read-out: Percentage damage caused to weed species, post-emergence, AMARE. How it is done: as §2
Assay [9] has as its system Echinochloa crusgaffi (ECHCG). The assay is described as above. The settings on record: rate 1,000 g/ha; for pest or weed control at 1000 g/ha: Echinochloa, 312 h, read-out: Percentage damage caused to weed species, post-emergence, ECHCG. The method, then: as §2
The subject of assay [10] is Ipomoea hederaceae (IPOHE). Described as above. The settings on record: rate 1,000 g/ha; for pest or weed control at 1000 g/ha: Ipomoea, 312 h, read-out: Percentage damage caused to weed species, post-emergence, IPOHE. How it is done: as §2
Assay [11] deals with Setaria faberi (SETFA). Described as above. The settings on record: rate 1,000 g/ha; for pest or weed control at 1000 g/ha: Setaria faberi, 312 h, read-out: Percentage damage caused to weed species, post-emergence, SETFA. The method, then:
as §2

Assay [12] concerns Solanum nigrum (SOLNI). Described as above. The settings on record: rate 1,000 g/ha; for pest or weed control at 1000 g/ha: Solanum nigrum, 312 h, read-out: Percentage damage caused to weed species, post-emergence, SOLNI. The method, then: as §2

Take `CCCCCC(C)OC(=O)c1nc(-c2ccc(Cl)c(OC)c2F)nc2[nH]cc(C)c12` (stereo not drawn) [Compound 1-79, 2-(4-Chloro-2-fluoro-3-methoxyphenyl)-4-(hept-2-yloxycarbonyl)-5-methyl-7H-pyrrolo[2,3-d]pyrimidine]: the pest or weed control at 1000 g/ha (in assay [1]; in assay [2]; in [3]; in assay [4]; in the assay with Setaria faberi (SETFA) [5]; with Solanum nigrum (SOLNI) [6]) was 0% each time. Besides, the pest or weed control at 1000 g/ha in assay [7] was 0%; in [8], 10%; in assay [9], 0%; in assay [10], 20%; with Setaria faberi (SETFA) [11], 0%; in the assay on Solanum nigrum (SOLNI) [12] it was 10%.
`C=CCOC(=O)c1nc(-c2ccc(Cl)c(OC)c2F)nc2[nH]cc(C)c12` [Compound 1-80, 2-(4-Chloro-2-fluoro-3-methoxyphenyl)-5-methyl-4-(prop-2-enyloxycarbonyl)-7H-pyrrolo[2,3-d]pyrimidine]: the pest or weed control at 1000 g/ha (in [1]; in [2]; in assay [3]; in assay [4]; in the assay with Setaria faberi (SETFA) [5]; in the assay with Solanum nigrum (SOLNI) [6]) was 0% throughout. Moreover, the pest or weed control at 1000 g/ha in [7] came to 0%; in assay [8], 60%; in [9] it was 10%; in [10], 40%; in the assay with Setaria faberi (SETFA) [11], 0%; in the assay with Solanum nigrum (SOLNI) [12] it was 80%.
Regarding `CCCCOCCOC(=O)c1nc(-c2ccc(Cl)c(OC)c2F)nc2[nH]cc(C)c12` [Compound 1-83, 4-[(2-n-Butoxy)-ethoxycarbonyl]-2-(4-chloro-2-fluoro-3-methoxyphenyl)-5-methy-7H-pyrrolo[2,3-d]pyrimidine], the pest or weed control at 1000 g/ha in [1] stood at 0%; in assay [2] it was 40%; in [3] it was 0%; in assay [4], 20%; with Setaria faberi (SETFA) [5], 0%; with Solanum nigrum (SOLNI) [6], 30%. Also, the pest or weed control at 1000 g/ha in assay [7] amounted to 0%; in assay [8], 70%; in assay [9], 10%; in [10], 40%; in the assay with Setaria faberi (SETFA) [11] it was 10%; in the assay on Solanum nigrum (SOLNI) [12], 70%.
As for `CCCCOCC(C)OC(=O)c1nc(-c2ccc(Cl)c(OC)c2F)nc2[nH]cc(C)c12` (stereo not drawn) [Compound 1-84, 4-[(1-n-Butoxy)-prop-2-yloxycarbonyl]-2-(4-chloro-2-fluoro-3-methoxyphenyl)-5-methyl-7H-pyrrolo[2,3-d]pyrimidne], the pest or weed control at 1000 g/ha in assay [1] was found to be 10%; in [2], 20%; in assay [3], 10%; in assay [4], 70%; in the assay with Setaria faberi (SETFA) [5] it was 10%; with Solanum nigrum (SOLNI) [6], 40%. Also, the pest or weed control at 1000 g/ha in assay [7] is 10%; in assay [8], 60%; in [9], 0%; in [10], 40%; with Setaria faberi (SETFA) [11], 10%; in the assay with Solanum nigrum (SOLNI) [12] it was 70%.
With `COCCOCCOC(=O)c1nc(-c2ccc(Cl)c(OC)c2F)nc2[nH]cc(C)c12` [Compound 1-85, 2-(4-Chloro-2-fluoro-3-methoxyphenyl)-4-{2-[(2-methoxy)-ethoxy]-ethoxycarbonyl}-5-methyl-7H-pyrrolo[2,3-d]pyrimidine], the pest or weed control at 1000 g/ha in [1] came to 20%; in [2] it was 100%; in assay [3], 0%; in [4] it was 10%; with Setaria faberi (SETFA) [5], 0%; in the assay on Solanum nigrum (SOLNI) [6], 70%. Moreover, the pest or weed control at 1000 g/ha in [7] worked out at 10%; in [8], 100%; in assay [9], 60%; in assay [10], 40%; with Setaria faberi (SETFA) [11], 40%; in the assay on Solanum nigrum (SOLNI) [12], 90%.
As for `COc1c(Cl)ccc(-c2nc(C(=O)OCc3ccco3)c3c(C)c[nH]c3n2)c1F` [Compound 1-87, 2-(4-Chloro-2-fluoro-3-methoxyphenyl)-4-(2-furanyl-methoxycarbonyl)-5-methy-7H-pyrrolo[2,3-d]pyrimidine], in assay [1], the “Percentage damage caused to weed species, pre-emergence, ALOMY” value stood at 0%. Also, in [2], the “Percentage damage caused to weed species, pre-emergence, AMARE” value turned out to be 10%. Besides, the “Percentage damage caused to weed species, pre-emergence, ECHCG” value in assay [3] was 0%. For the same molecule, the “Percentage damage caused to weed species, pre-emergence, IPOHE” value in assay [4] is listed as 10%. In the assay on Setaria faberi (SETFA) [5], the “Percentage damage caused to weed species, pre-emergence, SETFA” value was determined as 0%. In addition, the “Percentage damage caused to weed species, pre-emergence, SOLNI” value with Solanum nigrum (SOLNI) [6] was found to be 20%. Also, in [7], the “Percentage damage caused to weed species, post-emergence, ALOMY” value is recorded as 0%. Also, the “Percentage damage caused to weed species, post-emergence, AMARE” value in [8] came to 100%. Also, in assay [9], the “Percentage damage caused to weed species, post-emergence, ECHCG” value is listed as 0%. In assay [10], the “Percentage damage caused to weed species, post-emergence, IPOHE” value is on record as 50%. Further, in the assay on Setaria faberi (SETFA) [11], the “Percentage damage caused to weed species, post-emergence, SETFA” value amounted to 10%. Also, the “Percentage damage caused to weed species, post-emergence, SOLNI” value in the assay with Solanum nigrum (SOLNI) [12] came to 90%.
Take `COc1c(Cl)ccc(-c2nc(C(=O)OCC3CCCO3)c3c(C)c[nH]c3n2)c1F` (stereo not drawn) [Compound 1-88, 2-(4-Chloro-2-fluoro-3-methoxyphenyl)-5-methyl-4-(tetrahydrofuran-2-yl-methoxycarbonyl)-7H-pyrrolo[2,3-d]pyrimidine]: the pest or weed control at 1000 g/ha was determined as 0% in assay [1]; 10% in assay [2]; 10% in assay [3]; 10% in assay [4]; 0% in the assay on Setaria faberi (SETFA) [5]; 20% with Solanum nigrum (SOLNI) [6]. In addition, the pest or weed control at 1000 g/ha in assay [7] stood at 10%; in [8], 50%; in assay [9], 10%; in assay [10], 50%; with Setaria faberi (SETFA) [11], 40%; in the assay with Solanum nigrum (SOLNI) [12], 70%.
For `COC(=O)c1nc(-c2ccc(Cl)c(OC)c2F)nc2[nH]c(-c3ccccc3)c(C)c12` [Compound 1-108, 2-(4-Chloro-2-fluoro-3-methoxyphenyl)-4-methoxycarbonyl-5-methyl-6-phenyl-7H-pyrrolo[2,3-d]pyrimidine], the pest or weed control at 1000 g/ha (in assay [1]; in assay [2]; in assay [3]; in assay [4]; in the assay on Setaria faberi (SETFA) [5]; with Solanum nigrum (SOLNI) [6]) was 0% each time. Further, the pest or weed control at 1000 g/ha in [7] was found to be 0%; in [8] it was 0%; in assay [9] it was 0%; in assay [10], 50%; in the assay on Setaria faberi (SETFA) [11], 0%; in the assay on Solanum nigrum (SOLNI) [12] it was 30%.

The values above are taken from US20120202690A1, “HERBICIDAL COMPOUNDS” (SYNGENTA LIMITED, priority 2009, published 2012).
